Experimental data reported in US6951647B2, “T cell binding ligand peptides and method of inducing a cellular immune response” (Cel-Sci Corporation, priority 2001, dated 2005).
Values joined by “and” are separate entries in the source; they are usually repeats but may differ in a detail not shown here. Equal values may be shown once.

Key:
[1] = system: modified HGP-30 (mH, SEQ ID NO:6); experiment: Isotype analysis (ELISA) of anti-mH antibody in sera of immunized mice; format: in vivo; conditions: day 28 pool, with MPL
Protocol: (§1) Mice in groups (5-10 animals per group as designated) are immunized with the LEAPS constructs (25 μg/dose) of SEQ ID NO's:37, 38 and 39, in 0.2 mL emulsified 1:1 with adjuvant (Seppic's ISA-51 or Corixa's microfluidized MPL S/E) on days 0 and 14. Mice are evaluated by Delayed Type of Hypersensitivity (DTH) by inoculation on day 26 with 20 μl of a solution of saline or mH (SEQ ID NO:6) (25 μg in saline) in the left or right ear respectively. The DTH response is determined by measurement of the ear thickness 48 hours later and expressed as increase in ear thickness (mm) of experimental ear compared to that of the control ear. Individual animal sera are collected for measurement of antibody on day 28, 42, 63 and 77. Sera from individual animals and group pools are evaluated for specific anti-mH antibody, for total antibody, IgG1, IgG2a and IgG3 antibody isotype and cross clade titer at selected time points as indicated.
The results of an isotype analysis of day 42 test bleedings with G′-mH (SEQ ID NO:37), G-mH (SEQ ID NO:38), J-mH (SEQ ID NO:39), F-mH (SEQ ID NO:40) and F-HGP-30 (SEQ ID NO:41), are shown in Table 1.
An isotype analysis for pools of day 28 test bleedings G-mH, G′-mH and m-HGP-30/KLH using either MPL S/E or ISA51 as adjuvant, are shown in Table 3.

modified HGP-30 = experiment: ELISA antibody screening of sera of immunized mice on modified HGP-30; format: in vivo; conditions: for ELISA test antigen Modified HGP-30: day 42 test bleeding
Protocol: as §1, with “indicated. […]” for “indicated.”

B Clade = experiment: ELISA cross clade recognition by sera of immunized mice, B Clade; format: in vivo; conditions: for ELISA test antigen B Clade: day 42 test bleeding
Protocol: as §1
(§2) The mouse sera for the ELISA was used at a dilution of 1:200. Again, clearly, the construct provides higher signals indicative of higher levels of the antibodies that recognized other clades besides the parental one (Clade B) of mH.
(§3) A cross clade analysis for pools of day 42 test bleedings from the same groups as used in Table 3, were obtained and the results are shown in Table 4.

C Clade = experiment: ELISA cross clade recognition by sera of immunized mice, C Clade; format: in vivo; conditions: for ELISA test antigen C Clade: day 42 test bleeding
Protocol: as §1, §2, §3

D Clade [2] = experiment: ELISA cross clade recognition by sera of immunized mice, D Clade; format: in vivo; conditions: for ELISA test antigen D Clade: day 42 test bleeding, Group Average
Protocol: as §1, §2, §3

E Clade [3] = experiment: ELISA cross clade recognition by sera of immunized mice, E Clade; format: in vivo; conditions: for ELISA test antigen E Clade: day 42 test bleeding, Group Average
Protocol: as §1, §2, §3

Peptide G [4] = experiment: Specificity analysis for the TCBL carrier, ELISA plates coated with Peptide G; format: in vivo, Mice; conditions: for A 490 1:200 dilution on plates coated with Peptide G: Average
Protocol: as §1
A specificity analysis for the TCBL or KLH carrier for pools of day 42 test bleedings from the G-mH, G′-mH and mH/KLH, using either MPL S/E or ISA51 as adjuvant, was carried out (all sera assayed at a dilution of 1:200) and the results are shown in Table 5. […] This observation is especially significant for vaccines used on a repetitive basis, such as, either a vaccine that requires more frequent intervals between boosters for maintenance of cellular reactivity or as a therapeutic vaccine.

D Clade [5] = experiment: ELISA cross clade recognition by sera of immunized mice, D Clade; format: in vivo; conditions: day 42 test bleeding, individual mouse
E Clade [6] = experiment: ELISA cross clade recognition by sera of immunized mice, E Clade; format: in vivo; conditions: day 42 test bleeding, individual mouse
Peptide G [7] = experiment: Specificity analysis for the TCBL carrier, ELISA plates coated with Peptide G; format: in vivo, Mice; conditions: individual animal
[8] = day 63 test bleeding, sera 1:200, individual mouse

Substance: NGQ EEK AGV VST GLI GGG ATL YSV HQR IDV KDT KEA LEK IEE EQN KS (DGQEEKAGVVSTGLIGGGEAQNTTYL) [SEQ ID NO: 58, Peptide G linked by GGG spacer to modified HGP-30 (mH)]
- Ig2b, serial dilution 1:800 [1]: 0.026
- Ig2b, serial dilution 1:3200 [1]: 0.022
- Ig2b, serial dilution 1:12800 [1]: 0.006
- Ig2b, serial dilution 1:51200 [1]: 0.007
- Ig2b, serial dilution 1:204800 [1]: 0.018
- Ig3, serial dilution 1:200 [1]: 0.265
- Ig3, serial dilution 1:800 [1]: 0.044
- Ig3, serial dilution 1:3200 [1]: 0.006
- Ig3, serial dilution 1:12800 [1]: 0.001
- Ig3, serial dilution 1:51200 [1]: 0.000
- Ig3, serial dilution 1:204800 [1]: 0.000
- A 490 1:200 dilution on plates coated with modified HGP-30 (modified HGP-30; day 42, first set of groups (animals 4637-4648, 4674-4678), individual animal): 0.257 A 490 and 0.571 A 490 and 0.065 A 490 and 0.392 A 490 and 1.008 A 490 and 0.021 A 490
- A 490 1:200 dilution on plates coated with modified HGP-30 (modified HGP-30; day 42, first set of groups, Average): 0.386 A 490
- A 490 1:200 dilution on plates coated with modified HGP-30 (modified HGP-30; day 42, second set of groups (animals 4662-4673, 4679-4683), individual animal): 0.051 A 490 and 0.052 A 490 and 1.102 A 490 and 0.005 A 490 and 0.000 A 490 (2×)
- A 490 1:200 dilution on plates coated with modified HGP-30 (modified HGP-30; day 42, second set of groups, Average): 0.202 A 490
- ELISA test antigen Modified HGP-30 (modified HGP-30; group (A), Group Average): 0.576
- ELISA test antigen Modified HGP-30 (modified HGP-30; group (A), individual mouse): 0.470 and 1.103 and 0.046 and 0.390 and 1.297 and 0.153
- ELISA test antigen Modified HGP-30 (modified HGP-30; group (B), Group Average): 0.394
- ELISA test antigen Modified HGP-30 (modified HGP-30; group (B), individual mouse): 0.187 and 0.188 and 1.848 and 0.145 and 0.000 (2×)
- ELISA signal on modified HGP-30 (modified HGP-30; [8]): 1.831 and 2.453 and 2.530 and 1.740 and 0.398 and 1.240 and 2.665 and 1.014 and 0.444 and 0.304
- ELISA test antigen B Clade (B Clade; group (A), Group Average): 0.005
- ELISA test antigen B Clade (B Clade; group (A), individual mouse): 0.000 (5×) and 0.028
- ELISA test antigen B Clade (B Clade; group (B), Group Average): 0.022
- ELISA test antigen B Clade (B Clade; group (B), individual mouse): 0.000 (3×) and 0.006 and 0.079 and 0.046
- ELISA signal on B Clade (B Clade; [8]): 0.000 (6×) and 0.316 and 0.148 and 0.006 and 0.230
- ELISA test antigen C Clade (C Clade; group (A), Group Average): 0.018
- ELISA test antigen C Clade (C Clade; group (A), individual mouse): 0.000 (4×) and 0.004 and 0.104
- ELISA test antigen C Clade (C Clade; group (B), Group Average): 0.009
- ELISA test antigen C Clade (C Clade; group (B), individual mouse): 0.003 (2×) and 0.000 (3×) and 0.050
- ELISA signal on C Clade (C Clade; [8]): 0.125 and 0.359 and 0.238 and 0.047 and 0.005 and 0.076 and 0.643 and 0.000 (3×)
- ELISA test antigen D Clade (D Clade [2]; group (A)): 0.000
- ELISA test antigen D Clade (D Clade [2]; group (B)): 0.002
- ELISA signal on D Clade (D Clade [2]; [8]): 0.025 and 0.646 and 0.000 (6×) and 0.001 and 0.016
- ELISA test antigen E Clade (E Clade [3]; group (A)): 0.000
- ELISA test antigen E Clade (E Clade [3]; group (B)): 0.000
- ELISA signal on E Clade (E Clade [3]; [8]): 0.000 (8×) and 0.016 and 0.504
- A 490 1:200 dilution on plates coated with Peptide G (Peptide G [4]; day 42, first set of groups): 0.099 A 490
- A 490 1:200 dilution on plates coated with Peptide G (Peptide G [4]; day 42, second set of groups): 0.062 A 490
- Reactivity toward the delivery vehicle TCBL (Peptide G [4]; day 42 sera at 1:200, Table 5, in words): minimal reactivity
- ELISA test antigen D Clade (D Clade [5]; group (A)): 0.000
- ELISA test antigen D Clade (D Clade [5]; group (B)): 0.005 and 0.006 and 0.000 (4×)
- ELISA test antigen E Clade (E Clade [6]; group (A)): 0.000
- ELISA test antigen E Clade (E Clade [6]; group (B)): 0.000
- A 490 1:200 dilution on plates coated with Peptide G (Peptide G [7]; day 42, first set of groups (animals 4637-4648, 4674-4678)): 0.195 A 490 and 0.122 A 490 and 0.092 A 490 and 0.088 A 490 and 0.047 A 490
- A 490 1:200 dilution on plates coated with Peptide G (Peptide G [7]; day 42, second set of groups (animals 4662-4673, 4679-4683)): 0.024 A 490 and 0.044 A 490 and 0.062 A 490 and 0.033 A 490 and 0.060 A 490 and 0.151 A 490
